This assay relates to human peripheral blood mononuclear cells (PBMCs). The experiment in a line: Proliferation of CFSE-labeled activated PBMCs in the presence of adenosine. In kind it is cell-based. The following applies: PBMCs + anti-CD3/CD28 + IL-2 + Ado 0.1 mM + compound 15 μM, 3 days. From the text:
To gain evidence supporting the role of the here optimized A2BAR antagonists in the context of cancer immunotherapy, it was decided to evaluate the effect of two representative compounds (16b and 16j) in the proliferative activity of a prototypical immune cell. The human peripheral blood mononuclear cells (PBMCs) were selected for the study; they are critical components of the immune system and are involved in both humoral and cell-mediated immunity. Ado-mediated blockade of PBMC proliferation is well documented and characterized;[51],[52] we therefore investigated whether our A2BAR antagonists (16b and 16j) can reverse the blockade of ADO-mediated proliferation in human PBMCs. PBMCs, isolated from a healthy donor, were labeled with carboxyfluorescein succinimidyl ester (CFSE) and then activated by adding anti-CD3/CD28 antibodies and interleukin 2 (IL-2). CFSE is a cell dye that allows for the determination of cell proliferation, as dividing cells progressively lose fluorescence.
Figure 10 Effect of compounds 16b and 16j on the proliferation of PBMCs stimulated with antiCD3/CD28 + IL-2 in the presence of adenosine (ADO). […] The frequency of proliferating cells (CFSE^dim) as well as their median fluorescence intensities were quantified and ratios calculated against the values of stimulated PBMCs with no further treatment. […]

For the compound `CC1=C(C(=O)OC(C)C)C(c2ccco2)n2c(nc3cc(F)ccc32)N1` (centres unmarked) [16b], the “frequency of proliferating cells (CFSEdim)” value is listed as 9.14%.
Consider `CC1=C(C(=O)OC(C)C)C(c2ccco2)n2c(nc3cc(Cl)ccc32)N1` (centres unmarked) [16j], for which the “frequency of proliferating cells (CFSEdim)” value was determined as 6.54%.

The record behind these values is article PMC9841532, “Exploring the Effect of Halogenation in a Series of Potent and Selective A2B Adenosine Receptor Antagonists” (Journal of Medicinal Chemistry, 2022).
